What follows are compounds tested on amidase (assay: Mouse liver microsomal amidase, isoniazid to isonicotinic acid). Details: 1 uM.
Format: biochemical
From the text: Mouse liver microsomes were used as the source of amidase, and isoniazid was used as the amidase metabolism drugs. quantitative isoniazid was catalyzed into metabolites isonicotinic acid (INA) by amidase, and was used as the index for measurement of the amidase activity for establishment of the platform for screening in vitro amidase activity inhibitors. The HPLC system includes a Shimadzu the LC-LOAD pump, 1 Shimadzu system control and a Shimadzu autosampler (Shimadzu Scientific Instrument, Japan). A C18 column (particle size 5 μm, inner diameter of 50×4.6 mm, 25 cm) containing 70% methanol and 30% ammonium formate (50 mM, pH=2.5) of the mobile phase for HPLC separation, and the experimental steps are outlined as follows:
(2) An aliquot of 150 μL mouse liver microsomal solution was added to 100 μL isoniazid solution in 35 μL 67 mM potassium phosphate buffer solution ([…], pH=7) with a final concentration at 3 mM, and then mixed thoroughly with 15 μL amidase inhibitor (deionized water was added in the control group). (3) Incubation at 37° C. water bath for 30 minutes. (4) An aliquot of 300 μL acetonitrile (ACN) was added and mixed thoroughly, and incubated for 6 minutes. (5) An aliquot of 30 μL perchloric acid was then mixed and incubated for 6 minutes. (6) The mixture was centrifuged at 13000 g for 6 minutes. (7) After centrifugation, 100 μL of the supernatant was injected into HPLC. (8) Methanol ammonium formate (50 mM, pH=2.5)=70:30 (V/V) was selected as the mobile phase, and the flow rate was controlled at […] and detected at 270 nm UV. […] The amidase inhibition % was then calculated using the following formula: […]
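Throughout, for Inhibition of CYP 2E1: chlorzoxazone added as substrate, 6-hydroxychlorzoxazone formation quantified by LC/MS/MS after 30 min at 37 °C with NADP+ regenerating system, compared against solvent control without test sample.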
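Throughout, for Minimum Effective Dose: chlorzoxazone added as substrate, 6-hydroxychlorzoxazone formation quantified by LC/MS/MS after 30 min at 37 °C with NADP+ regenerating system, compared against solvent control without test sample.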

First: O=c1c(O)c(-c2ccc(O)cc2O)oc2cc(O)cc(O)c12 [Morin]
Second: O=c1c(O)c(-c2ccc(O)c(O)c2)oc2cc(O)cc(O)c12 [Quercetin]
The Amidase inhibition of the first is lower: −16.6 ± 4.8% for the first, 48.1 ± 15.0% for the second.

`O=c1cc(-c2ccc(O)c(O)c2)oc2cc(O)cc(O)c12` [Luteolin] and `COc1cc(-c2oc3cc(O)cc(O)c3c(=O)c2O)ccc1O` [Isorhamnetin] are within error of each other in Amidase inhibition: 6.1 ± 9.1% for the first, 13.8 ± 1.0% for the second.

`O=c1c(-c2ccc(O)cc2)coc2cc(O)cc(O)c12` [Genistein] and `COc1ccc(-c2oc3cc(O)cc(O)c3c(=O)c2O)cc1O` [Tamarixetin] are within error of each other in Amidase inhibition: −2.1 ± 46.2% for the first, 3.5 ± 10.5% for the second.

`Oc1cc(O)c2c(c1)O[C@H](c1cc(O)c(O)c(O)c1)[C@H](O)C2` [(−)-Epigallocatechin] gave an Amidase inhibition of −1.2 ± 2.1%.

Same assay, conditions: 10 uM

Going from `O=c1c(O)c(-c2ccc(O)cc2O)oc2cc(O)cc(O)c12` [Morin] to `O=c1c(O)c(-c2ccc(O)c(O)c2)oc2cc(O)cc(O)c12` [Quercetin], the Amidase inhibition rises from 9.1 ± 1.7% to 62.3 ± 4.4%.

`O=c1cc(-c2ccc(O)c(O)c2)oc2cc(O)cc(O)c12` [Luteolin] and `COc1cc(-c2oc3cc(O)cc(O)c3c(=O)c2O)ccc1O` [Isorhamnetin] are within error of each other in Amidase inhibition: 23.0 ± 6.0% for the first, 20.0 ± 4.6% for the second.

Compared with `O=c1c(-c2ccc(O)cc2)coc2cc(O)cc(O)c12` [Genistein], `COc1ccc(-c2oc3cc(O)cc(O)c3c(=O)c2O)cc1O` [Tamarixetin] is higher in Amidase inhibition: 1.8 ± 7.6% for the first, 27.9 ± 6.3% for the second.

Work on `Oc1cc(O)c2c(c1)O[C@H](c1cc(O)c(O)c(O)c1)[C@H](O)C2` [(−)-Epigallocatechin] yielded an Amidase inhibition of −7.3 ± 7.6%.

Same assay, conditions: 100 uM

Going from `O=c1c(O)c(-c2ccc(O)cc2O)oc2cc(O)cc(O)c12` [Morin] to `O=c1c(O)c(-c2ccc(O)c(O)c2)oc2cc(O)cc(O)c12` [Quercetin], the Amidase inhibition rises from 59.8 ± 5.1% to 75.5 ± 2.2%.

First: O=c1cc(-c2ccc(O)c(O)c2)oc2cc(O)cc(O)c12 [Luteolin]
Second: COc1cc(-c2oc3cc(O)cc(O)c3c(=O)c2O)ccc1O [Isorhamnetin]
The Amidase inhibition of the first is higher: 47.5 ± 6.2% for the first, 31.3 ± 1.3% for the second.

First: O=c1c(-c2ccc(O)cc2)coc2cc(O)cc(O)c12 [Genistein]
Second: COc1ccc(-c2oc3cc(O)cc(O)c3c(=O)c2O)cc1O [Tamarixetin]
The Amidase inhibition of the first is lower: 5.8 ± 6.8% for the first, 28.9 ± 4.2% for the second.

`Oc1cc(O)c2c(c1)O[C@H](c1cc(O)c(O)c(O)c1)[C@H](O)C2` [(−)-Epigallocatechin] was tested, and the Amidase inhibition was 2.2 ± 4.1%.

Same assay, conditions: 0.0005%

`CC1=CC(=O)NS(=O)(=O)O1` [Acesulfame K] and `CCCCCCCCCCCCOS(=O)(=O)[O-].[Na+]` [Sodium lauryl sulfate] are within error of each other in Amidase inhibition: −12.4 ± 27.4% for the first, 9.6 ± 5.0% for the second.

Same assay, conditions: 0.005%

Compared with `CC1=CC(=O)NS(=O)(=O)O1` [Acesulfame K], `CCCCCCCCCCCCOS(=O)(=O)[O-].[Na+]` [Sodium lauryl sulfate] is higher in Amidase inhibition: −167.2 ± 167.3% for the first, 19.3 ± 2.7% for the second.

Same assay, conditions: 0.05%

First: CC1=CC(=O)NS(=O)(=O)O1 [Acesulfame K]
Second: CCCCCCCCCCCCOS(=O)(=O)[O-].[Na+] [Sodium lauryl sulfate]
The Amidase inhibition of the first is lower: 24.3 ± 4.9% for the first, 66.1 ± 2.1% for the second.

Each compound was assayed against CYP2E1 (Homo sapiens, UniProt P05181) (assay: Human liver microsomal CYP2E1, chlorzoxazone 6-hydroxylation). Details: human, human liver microsomes, pH 7.4, probe Chlorzoxazone.
Chain of CYP2E1 (P05181 whole entry): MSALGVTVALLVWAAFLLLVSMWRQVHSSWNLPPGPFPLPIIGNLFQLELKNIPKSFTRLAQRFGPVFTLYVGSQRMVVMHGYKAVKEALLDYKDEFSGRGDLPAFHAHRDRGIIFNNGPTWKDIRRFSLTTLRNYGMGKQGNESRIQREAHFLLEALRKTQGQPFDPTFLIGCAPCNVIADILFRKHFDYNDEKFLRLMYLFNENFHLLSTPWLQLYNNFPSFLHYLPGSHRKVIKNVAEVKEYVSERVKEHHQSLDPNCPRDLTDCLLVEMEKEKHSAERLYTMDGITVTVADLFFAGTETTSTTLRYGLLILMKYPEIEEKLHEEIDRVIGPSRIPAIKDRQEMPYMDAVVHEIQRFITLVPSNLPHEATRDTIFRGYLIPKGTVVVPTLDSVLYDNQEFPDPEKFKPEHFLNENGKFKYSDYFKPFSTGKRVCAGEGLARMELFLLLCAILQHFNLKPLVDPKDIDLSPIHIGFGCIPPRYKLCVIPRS

Going from `CC1=CC(=O)NS(=O)(=O)O1` [Acesulfame K] to `CC1CCC(C(C)C)C(O)C1` (stereo not drawn) [Menthol], the inhibition at 30 min, 0.08 % (w/v) rises from 7.1 ± 2.3% to 20.8 ± 2.1%.

Compared with `CC1=CC(=O)NS(=O)(=O)O1` [Acesulfame K], `CC1CCC(C(C)C)C(O)C1` (stereo not drawn) [Menthol] is higher in inhibition at 30 min, […] (w/v): 3.9 ± 2.7% for the first, 10.5 ± 0.4% for the second.

First: COC(=O)c1ccc(O)cc1 [Methylparaben]
Second: CCCOC(=O)c1ccc(O)cc1 [Propylparaben]
The inhibition at 30 min, 16.5 µM of the first is higher: 4.6 ± 3.2% for the first, -4.1 ± 1.2% for the second.

First: CCCCCCCCCCCCOS(=O)(=O)[O-].[Na+] [Sodium lauryl sulfate]
Second: O=C(O)CC(O)(CC(=O)O)C(=O)O [Citric acid]
The inhibition at 30 min, 16.5 µM of the first is lower: 4.6 ± 1.1% for the first, 9.9 ± 3.1% for the second.

`C/C=C/C=C/C(=O)O` [Sorbic acid] and `O.OC[C@H]1O[C@@H](O[C@H]2[C@H](O)[C@@H](O)C(O)O[C@@H]2CO)[C@H](O)[C@@H](O)[C@H]1O` (stereo partly drawn) [Lactose monohydrate] are within error of each other in inhibition at 30 min, 16.5 µM: 8.4 ± 1.6% for the first, 7.8 ± 2.2% for the second.

`COC(=O)c1ccc(O)cc1` [Methylparaben] and `CCCOC(=O)c1ccc(O)cc1` [Propylparaben] are within error of each other in inhibition at 30 min, 33 µM: -14 ± 2.2% for the first, -17.2 ± 2.4% for the second.

Going from `CCCCCCCCCCCCOS(=O)(=O)[O-].[Na+]` [Sodium lauryl sulfate] to `O=C(O)CC(O)(CC(=O)O)C(=O)O` [Citric acid], the inhibition at 30 min, 33 µM rises from 6.4 ± 0.9% to 15.5%.

Compared with `C/C=C/C=C/C(=O)O` [Sorbic acid], `O.OC[C@H]1O[C@@H](O[C@H]2[C@H](O)[C@@H](O)C(O)O[C@@H]2CO)[C@H](O)[C@@H](O)[C@H]1O` (stereo partly drawn) [Lactose monohydrate] is lower in inhibition at 30 min, 33 µM: 10.9 ± 2.1% for the first, 3.9 ± 2.3% for the second.

First: COC(=O)c1ccc(O)cc1 [Methylparaben]
Second: CCCOC(=O)c1ccc(O)cc1 [Propylparaben]
The inhibition at 30 min, 66 µM of the first is higher: -21.5 ± 2% for the first, -27.3 ± 3.7% for the second.

Compared with `CCCCCCCCCCCCOS(=O)(=O)[O-].[Na+]` [Sodium lauryl sulfate], `O=C(O)CC(O)(CC(=O)O)C(=O)O` [Citric acid] is higher in inhibition at 30 min, 66 µM: 4.9 ± 1.6% for the first, 20.5 ± 1.8% for the second.

Compared with `C/C=C/C=C/C(=O)O` [Sorbic acid], `O.OC[C@H]1O[C@@H](O[C@H]2[C@H](O)[C@@H](O)C(O)O[C@@H]2CO)[C@H](O)[C@@H](O)[C@H]1O` (stereo partly drawn) [Lactose monohydrate] is lower in inhibition at 30 min, 66 µM: 14.8 ± 0.1% for the first, 8.7 ± 3.8% for the second.

Same assay, conditions: human, microsomes, pH 7.4

First: CC1=CC(=O)NS(=O)(=O)O1 [Acesulfame K]
Second: CC1CCC(C(C)C)C(O)C1 (stereo not drawn) [Menthol]
The inhibition at 30 min, 0.167 % (w/v) of the first is lower: 14.5 ± 1.9% for the first, 30.8 ± 0.3% for the second.

The compounds below were run against human liver microsomal cytochrome P450 2E1 (CYP2E1) (Homo sapiens, UniProt P05181) in the same assay as above. Details: 16.5 μM.
Chain of human liver microsomal cytochrome P450 2E1 (CYP2E1) (P05181 whole entry): as above

For `Oc1cc(O)c2c(c1)O[C@H](c1cc(O)c(O)c(O)c1)[C@H](O)C2` [(−)-Epigallocatechin], the “Inhibition of CYP 2E1” value was 38.95 ± 1.92%.

Same assay, conditions: 33 μM

For `Oc1cc(O)c2c(c1)O[C@H](c1cc(O)c(O)c(O)c1)[C@H](O)C2` [(−)-Epigallocatechin], the “Inhibition of CYP 2E1” value was 36.40 ± 2.18%.

Same assay, conditions: 66 μM

For `Oc1cc(O)c2c(c1)O[C@H](c1cc(O)c(O)c(O)c1)[C@H](O)C2` [(−)-Epigallocatechin], the “Inhibition of CYP 2E1” value was 57.08 ± 1.85%.

Same assay, conditions: Table 6; minimum tested concentration (mg/L) × volume of human liver and intestine (3 L)

`O=c1c(O)c(-c2ccc(O)cc2O)oc2cc(O)cc(O)c12` [Morin] and `O=c1c(O)c(-c2ccc(O)c(O)c2)oc2cc(O)cc(O)c12` [Quercetin] are the same in “Minimum Effective Dose” value: 16 mg for the first, 16 mg for the second.

Going from `O=c1cc(-c2ccc(O)c(O)c2)oc2cc(O)cc(O)c12` [Luteolin] to `COc1cc(-c2oc3cc(O)cc(O)c3c(=O)c2O)ccc1O` [Isorhamnetin], the “Minimum Effective Dose” value falls from 16 mg to 14 mg.

Compared with `O=c1c(-c2ccc(O)cc2)coc2cc(O)cc(O)c12` [Genistein], `COc1ccc(-c2oc3cc(O)cc(O)c3c(=O)c2O)cc1O` [Tamarixetin] is higher in “Minimum Effective Dose” value: 15 mg for the first, 17 mg for the second.

With `Oc1cc(O)c2c(c1)O[C@H](c1cc(O)c(O)c(O)c1)[C@H](O)C2` [(−)-Epigallocatechin] the “Minimum Effective Dose” value was 17 mg.

Same assay, conditions: Table 7

Going from `CC1=CC(=O)NS(=O)(=O)O1` [Acesulfame K] to `CCCOC(=O)c1ccc(O)cc1` [Propylparaben], the “Minimum Effective Dose” value falls from 10 mg to 9 mg.

Going from `COC(=O)c1ccc(O)cc1` [Methylparaben] to `C/C=C/C=C/C(=O)O` [Sorbic acid], the “Minimum Effective Dose” value falls from 8 mg to 6 mg.

Going from `CCCCCCCCCCCCOS(=O)(=O)[O-].[Na+]` [Sodium lauryl sulfate] to `CC1CCC(C(C)C)C(O)C1` (stereo not drawn) [Menthol], the “Minimum Effective Dose” value falls from 14 mg to 8 mg.

Going from `O.OC[C@H]1O[C@@H](O[C@H]2[C@H](O)[C@@H](O)C(O)O[C@@H]2CO)[C@H](O)[C@@H](O)[C@H]1O` (stereo partly drawn) [Lactose monohydrate] to `O=C(O)CC(O)(CC(=O)O)C(=O)O` [Citric acid], the “Minimum Effective Dose” value falls from 18 mg to 10 mg.
